For one assay, the target named is T1, NADPH oxidase 1 (Homo sapiens, UniProt Q9Y5S8).
T1 sequence (Q9Y5S8 whole entry): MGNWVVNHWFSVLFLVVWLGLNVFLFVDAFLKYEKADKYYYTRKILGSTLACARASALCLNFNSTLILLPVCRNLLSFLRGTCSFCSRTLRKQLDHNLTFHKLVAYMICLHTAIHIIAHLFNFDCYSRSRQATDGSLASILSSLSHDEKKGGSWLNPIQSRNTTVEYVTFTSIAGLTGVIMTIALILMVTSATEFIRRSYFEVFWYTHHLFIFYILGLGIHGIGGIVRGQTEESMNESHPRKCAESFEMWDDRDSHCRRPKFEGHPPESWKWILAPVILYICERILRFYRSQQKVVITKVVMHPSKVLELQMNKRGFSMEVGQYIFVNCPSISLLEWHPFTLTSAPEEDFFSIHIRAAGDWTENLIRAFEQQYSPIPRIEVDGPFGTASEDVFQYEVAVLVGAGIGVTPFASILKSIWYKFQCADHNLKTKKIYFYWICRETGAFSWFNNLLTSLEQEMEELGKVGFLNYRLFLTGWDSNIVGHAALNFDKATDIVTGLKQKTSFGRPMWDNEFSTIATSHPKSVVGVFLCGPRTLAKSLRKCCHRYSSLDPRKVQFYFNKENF
The assay is described as follows: Late-stage luminescence-based cell-based dose response assay to identify inhibitors of NADPH oxidase 1 (NOX1): Purchased analogs 2. Format: functional.

The target of assay [1] is T2, Bcl-2-related protein A1 (Mus musculus, UniProt Q07440).
T2 sequence (Q07440 whole entry): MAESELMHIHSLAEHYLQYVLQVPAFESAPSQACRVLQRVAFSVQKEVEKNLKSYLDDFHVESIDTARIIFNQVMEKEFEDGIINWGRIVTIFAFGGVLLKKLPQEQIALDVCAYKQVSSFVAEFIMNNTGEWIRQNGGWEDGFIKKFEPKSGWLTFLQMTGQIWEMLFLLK
Description: Bfl-1 inhibitors blocking BH3 peptide binding, confirmation, biochemical, TR-FRET, mouse Bfl-1 (AID 621).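 Also: TR-FRET binding of GST-Bfl-1 to FITC-labelled Bid peptide via terbium antibody.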 Background: Time-resolved FRET reads energy transfer from a long-lived donor to a nearby acceptor.

Assay [2] deals with T2, Bcl-2-related protein A1. Description: Bfl-1 binding inhibitors, SAR follow-up, biochemical, fluorescence polarization (AID 1070).
Assay [3] deals with T3, RNA-binding protein pos-1 (Caenorhabditis elegans, UniProt G5EF15).
T3 sequence (G5EF15 whole entry): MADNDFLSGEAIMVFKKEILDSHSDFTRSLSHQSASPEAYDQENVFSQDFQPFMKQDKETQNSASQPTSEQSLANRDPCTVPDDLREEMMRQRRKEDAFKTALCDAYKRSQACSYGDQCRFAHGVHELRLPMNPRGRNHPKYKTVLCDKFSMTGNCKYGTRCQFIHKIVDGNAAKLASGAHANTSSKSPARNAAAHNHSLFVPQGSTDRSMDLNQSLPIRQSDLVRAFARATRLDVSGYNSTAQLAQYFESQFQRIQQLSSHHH
Description: inhibitors of POS-1/mex-3 RNA binding, dose response, biochemical, fluorescence polarization (AID 1964).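 Also: purified POS-1 fused to maltose binding protein made in E. coli; potency of compounds blocking POS-1 binding to fluorescent RNA.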

The target in assay [4] is T4, Zinc finger protein mex-5 (Caenorhabditis elegans, UniProt Q9XUB2).
T4 sequence (Q9XUB2 whole entry): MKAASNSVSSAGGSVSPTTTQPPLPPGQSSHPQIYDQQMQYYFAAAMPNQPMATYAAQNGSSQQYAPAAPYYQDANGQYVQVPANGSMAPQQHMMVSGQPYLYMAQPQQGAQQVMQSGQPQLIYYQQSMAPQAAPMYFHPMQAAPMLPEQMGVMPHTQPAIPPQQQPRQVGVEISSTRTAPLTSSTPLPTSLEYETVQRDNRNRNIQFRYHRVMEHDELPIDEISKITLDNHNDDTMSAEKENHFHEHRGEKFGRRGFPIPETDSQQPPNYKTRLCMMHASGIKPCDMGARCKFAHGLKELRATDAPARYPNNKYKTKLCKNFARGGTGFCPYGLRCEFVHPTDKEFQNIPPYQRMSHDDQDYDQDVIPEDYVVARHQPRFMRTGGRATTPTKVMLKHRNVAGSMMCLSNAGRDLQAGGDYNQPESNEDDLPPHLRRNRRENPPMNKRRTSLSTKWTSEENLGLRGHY
The assay is described as follows: MEX-5/TCR-2 RNA interaction inhibitors, dose response, biochemical, C. elegans, fluorescence polarization (AID 1960).

The nature of assay [5]: Escherichia coli growth inhibition, dose response, counter-screen for MEX-5/POS-1 RNA-binding inhibitor project, luminescence, NEB5alpha (AID 1959). Format: functional.
Assay [6] deals with Dual specificity protein phosphatase 6 (Rattus norvegicus, UniProt Q64346). The assay is described as follows: MKP-3 phosphatase inhibitors, primary screen, biochemical, rat enzyme, in vitro (AID 425).
Chain of Dual specificity protein phosphatase 6 (Q64346 whole entry): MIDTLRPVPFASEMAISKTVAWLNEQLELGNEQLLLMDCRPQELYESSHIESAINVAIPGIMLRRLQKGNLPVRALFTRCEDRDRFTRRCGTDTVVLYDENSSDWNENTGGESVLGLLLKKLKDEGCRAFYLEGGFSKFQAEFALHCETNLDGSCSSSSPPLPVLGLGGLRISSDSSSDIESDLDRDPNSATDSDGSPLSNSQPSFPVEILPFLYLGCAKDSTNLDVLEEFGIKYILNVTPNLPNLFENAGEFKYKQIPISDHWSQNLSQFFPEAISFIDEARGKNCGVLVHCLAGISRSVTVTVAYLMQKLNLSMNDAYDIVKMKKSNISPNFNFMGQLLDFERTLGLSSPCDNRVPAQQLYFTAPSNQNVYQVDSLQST
The target of a further assay is Cytochrome P450 2C19 (Homo sapiens, UniProt P33261). Description: qHTS Assay for Inhibitors and Substrates of Cytochrome P450 2C19. [Related pubchem assays: 410 ]. The settings on record: read-out: Potency. Format: ADME.
Chain of Cytochrome P450 2C19 (P33261 whole entry): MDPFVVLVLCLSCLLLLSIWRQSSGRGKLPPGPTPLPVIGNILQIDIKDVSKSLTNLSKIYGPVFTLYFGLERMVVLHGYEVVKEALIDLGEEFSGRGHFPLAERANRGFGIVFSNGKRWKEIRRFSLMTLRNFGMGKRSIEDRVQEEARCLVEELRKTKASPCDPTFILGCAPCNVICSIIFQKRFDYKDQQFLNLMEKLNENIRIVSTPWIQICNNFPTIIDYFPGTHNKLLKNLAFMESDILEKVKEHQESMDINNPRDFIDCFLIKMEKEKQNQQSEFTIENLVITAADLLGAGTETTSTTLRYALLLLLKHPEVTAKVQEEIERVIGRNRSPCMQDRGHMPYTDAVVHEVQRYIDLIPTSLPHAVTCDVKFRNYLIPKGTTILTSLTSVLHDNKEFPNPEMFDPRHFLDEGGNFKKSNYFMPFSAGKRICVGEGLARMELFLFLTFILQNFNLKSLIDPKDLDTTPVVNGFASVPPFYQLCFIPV
For assay [7], the target named is Peroxisome proliferator-activated receptor gamma/Nuclear receptor corepressor 2 (Homo sapiens, UniProt P37231+Q9Y618). The assay is described as follows: Counterscreen for NR2E3 inverse agonists: TR-FRET-based biochemical high throughput dose response assay to identify inverse agonists of the interaction between peroxisome proliferator-activated receptor gamma (PPARg) and nuclear receptor co-repressor 2 (NCOR2). Format: functional. In general terms: Counterscreens check selectivity or assay interference.

For assay [8], the target named is Photoreceptor-specific nuclear receptor (Homo sapiens, UniProt Q9Y5X4). The assay is described as follows: NR2E3 inverse agonists, dose response, biochemical, TR-FRET (AID 463256). It counts as functional.
Chain of Photoreceptor-specific nuclear receptor (Q9Y5X4 whole entry): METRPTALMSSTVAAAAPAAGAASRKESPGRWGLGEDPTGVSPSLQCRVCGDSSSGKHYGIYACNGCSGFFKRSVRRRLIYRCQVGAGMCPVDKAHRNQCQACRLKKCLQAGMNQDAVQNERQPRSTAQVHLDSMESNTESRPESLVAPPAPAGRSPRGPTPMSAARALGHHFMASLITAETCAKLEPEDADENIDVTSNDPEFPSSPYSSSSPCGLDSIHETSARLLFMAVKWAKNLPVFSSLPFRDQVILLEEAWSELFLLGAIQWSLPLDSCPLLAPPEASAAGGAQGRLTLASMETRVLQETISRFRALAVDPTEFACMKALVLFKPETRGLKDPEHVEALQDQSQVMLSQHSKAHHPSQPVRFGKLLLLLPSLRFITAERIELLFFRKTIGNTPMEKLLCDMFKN
The target of assay [9] is Luciferin 4-monooxygenase (Photinus pyralis, UniProt P08659). The assay is described as follows: firefly luciferase enzyme inhibitors, dose response, biochemical, luminescence (AID 1891).
Chain of Luciferin 4-monooxygenase (P08659 whole entry): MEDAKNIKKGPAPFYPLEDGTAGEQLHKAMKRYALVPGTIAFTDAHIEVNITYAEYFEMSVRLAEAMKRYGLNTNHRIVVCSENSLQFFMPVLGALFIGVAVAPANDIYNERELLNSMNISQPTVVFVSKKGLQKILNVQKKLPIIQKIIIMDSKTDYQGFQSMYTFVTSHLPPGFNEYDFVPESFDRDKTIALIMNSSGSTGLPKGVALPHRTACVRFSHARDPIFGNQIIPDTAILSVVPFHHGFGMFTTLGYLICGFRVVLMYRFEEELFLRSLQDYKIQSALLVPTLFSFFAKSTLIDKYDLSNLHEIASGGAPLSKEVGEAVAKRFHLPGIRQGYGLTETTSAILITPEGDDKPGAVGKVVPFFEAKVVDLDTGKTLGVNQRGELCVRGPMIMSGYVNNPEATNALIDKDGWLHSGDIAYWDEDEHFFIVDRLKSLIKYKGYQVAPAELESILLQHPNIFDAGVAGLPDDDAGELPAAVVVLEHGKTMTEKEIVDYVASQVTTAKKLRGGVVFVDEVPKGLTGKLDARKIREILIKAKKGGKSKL
A short description of assay [10]: Luminescence Cell-Based Dose Confirmation HTS to Identify Inhibitors of Platelet Dense Granule Release. [Related pubchem assays: 1663 (Primary HTS), 1678 (Summary of Project)]. Format: functional.
Assay [11] can be described thus: Fluorescence Cell-Based Dose Response to Identify Inhibitors of Thrombin Receptor-Activating Peptide SFLLRN-Mediated P-Selectin Induction on Platelets. [Related pubchem assays: 1663 (Primary HTS), 1889 (retest at dose ), 1891 (counterscreen), 1678 (Project Summary)]. Format: functional.
For a further assay, the target named is Prothrombin (Homo sapiens, UniProt P00734). The assay is described as follows: Thrombin 1536 HTS Dose Response Confirmation. [Related pubchem assays: 1046 (Thrombin 1536 HTS; hits were confirmed in this assay)]. Format: functional.
The target in a further assay is T5, Leucine aminopeptidase (Plasmodium falciparum 3D7, UniProt Q8IL11).
T5 sequence (Q8IL11 whole entry): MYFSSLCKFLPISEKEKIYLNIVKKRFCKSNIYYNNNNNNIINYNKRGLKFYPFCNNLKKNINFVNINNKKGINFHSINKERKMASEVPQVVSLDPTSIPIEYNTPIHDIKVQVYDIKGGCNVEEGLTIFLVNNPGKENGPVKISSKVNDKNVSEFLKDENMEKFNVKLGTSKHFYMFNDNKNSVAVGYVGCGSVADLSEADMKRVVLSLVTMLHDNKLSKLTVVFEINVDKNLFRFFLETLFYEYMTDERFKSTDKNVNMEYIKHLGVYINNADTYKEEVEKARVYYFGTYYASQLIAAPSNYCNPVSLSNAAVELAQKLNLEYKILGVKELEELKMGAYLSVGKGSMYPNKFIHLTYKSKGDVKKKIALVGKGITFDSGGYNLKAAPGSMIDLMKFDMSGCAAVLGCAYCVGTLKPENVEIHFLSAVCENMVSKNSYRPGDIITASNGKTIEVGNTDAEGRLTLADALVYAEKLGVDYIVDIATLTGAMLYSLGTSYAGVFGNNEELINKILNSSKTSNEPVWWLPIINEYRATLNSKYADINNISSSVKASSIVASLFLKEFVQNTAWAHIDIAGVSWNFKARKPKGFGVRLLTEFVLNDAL
The assay is described as follows: P. falciparum M17LAP inhibitors, primary screen, biochemical, fluorogenic H-Leu-NHMec substrate, 1536-well (AID 1619). Format: functional.

For another assay, the target named is T6, Aspartyl aminopeptidase (Plasmodium falciparum 3D7, UniProt Q8I2J3).
T6 sequence (Q8I2J3 whole entry): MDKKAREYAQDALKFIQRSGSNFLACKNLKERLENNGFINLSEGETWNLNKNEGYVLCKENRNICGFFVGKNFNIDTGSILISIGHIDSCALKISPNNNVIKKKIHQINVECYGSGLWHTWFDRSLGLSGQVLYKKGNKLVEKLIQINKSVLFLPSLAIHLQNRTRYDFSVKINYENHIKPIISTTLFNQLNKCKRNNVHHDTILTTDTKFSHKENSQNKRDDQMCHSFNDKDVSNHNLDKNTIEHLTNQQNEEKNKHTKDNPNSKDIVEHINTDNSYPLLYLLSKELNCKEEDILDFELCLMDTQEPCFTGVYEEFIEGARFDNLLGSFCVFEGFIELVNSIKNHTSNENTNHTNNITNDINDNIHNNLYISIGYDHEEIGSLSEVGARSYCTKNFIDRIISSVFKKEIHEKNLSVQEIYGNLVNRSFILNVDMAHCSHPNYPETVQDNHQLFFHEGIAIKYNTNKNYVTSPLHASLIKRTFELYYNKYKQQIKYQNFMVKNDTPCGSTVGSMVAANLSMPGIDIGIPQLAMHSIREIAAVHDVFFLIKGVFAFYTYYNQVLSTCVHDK
The assay is described as follows: Counterscreen for inhibitors of M1 and M17 aminopeptidases: QFRET-based biochemical high throughput dose response assay for inhibitors of the Plasmodium falciparum M18 Aspartyl Aminopeptidase (PFM18AAP). [Related PubChem assays: 1619 (Screening assay (M17LAP inhibitors).), 1445 (Screening assay (M1AAP inhibitors).)].

A further assay deals with Procathepsin L (Homo sapiens, UniProt P07711). The assay is described as follows: cathepsin L inhibitors, dose response, counter-screen for M1/M17 aminopeptidase inhibitor project, biochemical, QFRET, 1536-well (AID 2214).
Chain of Procathepsin L (P07711 whole entry): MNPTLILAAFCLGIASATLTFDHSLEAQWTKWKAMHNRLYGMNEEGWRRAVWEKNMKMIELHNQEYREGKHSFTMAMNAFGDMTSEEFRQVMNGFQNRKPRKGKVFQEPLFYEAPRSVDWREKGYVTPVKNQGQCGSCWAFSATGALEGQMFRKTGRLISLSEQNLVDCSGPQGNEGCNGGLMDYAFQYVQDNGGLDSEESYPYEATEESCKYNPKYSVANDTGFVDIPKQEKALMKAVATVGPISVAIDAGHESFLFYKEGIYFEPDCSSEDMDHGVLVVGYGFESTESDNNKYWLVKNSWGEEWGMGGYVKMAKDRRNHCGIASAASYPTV
The target in the next assay is T7, Protein skinhead-1 (Caenorhabditis elegans, UniProt P34707).
T7 sequence (P34707 whole entry): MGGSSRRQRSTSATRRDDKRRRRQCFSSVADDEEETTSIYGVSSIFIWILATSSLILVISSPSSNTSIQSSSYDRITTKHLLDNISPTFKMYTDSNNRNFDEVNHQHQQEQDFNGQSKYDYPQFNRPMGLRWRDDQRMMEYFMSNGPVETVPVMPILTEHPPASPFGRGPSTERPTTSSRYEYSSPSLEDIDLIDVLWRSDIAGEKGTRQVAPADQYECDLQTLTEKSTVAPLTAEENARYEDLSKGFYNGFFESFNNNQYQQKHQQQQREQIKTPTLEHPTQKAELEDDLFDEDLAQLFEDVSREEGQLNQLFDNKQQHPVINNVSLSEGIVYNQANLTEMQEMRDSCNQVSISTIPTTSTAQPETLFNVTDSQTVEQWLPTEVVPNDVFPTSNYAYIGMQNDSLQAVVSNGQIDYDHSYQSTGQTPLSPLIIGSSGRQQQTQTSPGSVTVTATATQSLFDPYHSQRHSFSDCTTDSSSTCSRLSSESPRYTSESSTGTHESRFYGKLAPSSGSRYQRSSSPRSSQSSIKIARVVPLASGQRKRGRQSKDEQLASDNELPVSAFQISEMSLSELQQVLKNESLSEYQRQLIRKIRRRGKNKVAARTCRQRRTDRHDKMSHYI
Format: functional.

The source made the active and inactive calls.

One may read the IC50 as the concentration at which inhibition is half-maximal. `S=C(NNC(=S)Nc1ccccc1)Nc1ccccc1`: the IC50 on NADPH oxidase 1 was 0.321 µM (active).
As for `COc1ncccc1-c1nnn(-c2ccc(Cl)nc2)n1`, the IC50 on Bcl-2-related protein A1 [1] and on Bcl-2-related protein A1 [2] was > 100 µM (not active) throughout.
As a reminder, the EC50 is the midpoint of the concentration-response curve. With `NC(=O)c1ccccc1N/C=C/C(=O)c1ccc(F)cc1`, the EC50 in [3] was > 300 µM (not active); in assay [4], > 300 µM (not active); in assay [5], 23 µM (active).
Consider `CCCCOc1ccccc1P(=O)(O)CP(=O)(c1ccccc1)c1ccccc1`, for which the IC50 in [6] is > 100 µM (not active).
In the case of `C[C@@]12CCC(=O)C=C1CC[C@H]1[C@H]3CC[C@](O)(C(=O)CO)[C@]3(C)CC[C@@H]12`, the AC50 on Cytochrome P450 2C19 is 10 µM (inconclusive).
In the case of `CCOCCCNC(=O)c1cc(-c2ccc(Br)s2)nc2ccccc12`, the results for the IC50 in assay [7] and in assay [8] were 4.18 µM (active) and 6.67 µM (active), respectively.
In the case of `CCC(CC)=N/N=C/c1c(O)n(CC)c2cc(C3=NNC(=O)CC3)ccc12`, the results for the EC50 in [9], in assay [10] and in [11] were > 112 µM (not active), 2.71 µM (active) and < 0.3 µM (active), respectively.
Take `COc1ccc(NC(=O)Cc2ccccc2F)cn1`: the IC50 against Prothrombin is > 50 µM (not active).
For `O=C(CSc1nc(O)cc(O)n1)Nc1ccc2c(c1)CCC2`, the IC50 on Leucine aminopeptidase is 2.01 µM (active); on Aspartyl aminopeptidase it was > 73.5 µM (not active); against Procathepsin L it was > 59.6 µM (not active); at Protein skinhead-1 it was > 100 µM (inactive).

(Values after ChEMBL document CHEMBL1201862, “PubChem BioAssay data set” (2004).)
